Paper PMC7613620, “Reaction hijacking of tyrosine tRNA synthetase as a whole-of-life-cycle antimalarial strategy” (Science (New York, N.Y.), 2022)
Read-outs that look alike come from different tables or passages of the source.

Assays:
Assay type in all cases: cell-based, Plasmodium falciparum
[1] = system: P. falciparum (Cam3.II-rev) schizont stage; test: 3 h drug pulse viability assay; conditions: read-out: IC50 (Viability)
Protocol: 553 Sigma-Aldrich) for 48-72 h. For drug pulse assays, tightly synchronized parasites (1-1.5% parasitemia,
554 0.2% final hematocrit) were added to the plates and incubated for 3 h. Drugs were removed and the
555 parasitemia assessed in the trophozoite stage of the next cycle.
557 Compounds were tested against a range of drug resistant field isolates and laboratory strains using a
558 modified [3H]-hypoxanthine incorporation assay, as previously reported (46). Field isolates 7G8, Cam3.1,
559 Dd2, K1, TM90C2B and NF54 were obtained from MR4 (www.beiresources.org).
561 Mammalian cell culture experiments
562 The HepG2 (Human hepatocyte carcinoma) cell line was procured from ATCC (American Type
563 Culture Collection, Manassas, USA; HB-8065) and viability assessed using Cell Titer-GLO luminescent
564 cell viability assay reagents (Promega, catalogue number: G7570) (47, 48). For the assay, 2000 cells/well
565 were plated in 384-well plates 24 h prior to the experiment and incubated at 37°C in a CO2 incubator. The
566 medium was removed and cells were treated with fresh medium containing either vehicle (0.5% DMSO)
567 or serially diluted test compounds or doxorubicin (1.3 nM to 25 µM) in a final volume of 50 µl/well and
568 further incubated for 72 h at 37°C in a CO2 incubator.
569 were treated with 5 µl of 1% Triton X-100 (final assay conc. 0.1%). Following incubation, 25 µl of medium
570 was discarded and 25 µl of Cell Titer-GLO reagent was added to each well and the plate was kept on a plate
571 shaker for 15 min at 25°C with shaking at 300 rpm. Luminescence signals were measured in a Spectramax
572 M5 reader (Molecular Devices).
574 H1650 is a human lung cancer derived ATG7-null cell line (49) that can be used to assess effects on targets
576 adenocarcinoma; bronchoalveolar carcinoma). Other cells lines used are: H460 (NCI-H460; human lung;
577 carcinoma; large cell lung cancer; ATCC: HTB-177); and HCT116 (human colon; colorectal carcinoma;
578 ATCC: CCL-247; Lot : 5056139). […]
580 inhibitors and cell viability was assessed by comparing the ATP content in compound-treated wells with […]

[2] = system: protein translation in P. falciparum (Cam3.II-rev) schizonts; test: Protein translation assay (O-propargyl-puromycin incorporation); conditions: read-out: IC50 (Translation)
Protocol: (§1) 723 then fixed for 10 minutes (4% formaldehyde/0.02% glutaraldehyde in PBS). The click reaction was
(§2) 724 performed for 1 h in the presence of CuSO4 (0.1 mM), THPTA (0.5 mM) and sodium ascorbate (5 mM) to
(§3) 725 bring about azide-alkyne cycloaddition to Alexa Fluor 488 azide (0.1 µM). Flow cytometry was performed
(§4) 726 using the FITC and Cy™5.5 channels to detect the Alexa Fluor 488 and PI, respectively.
(§5) 729 Cam 3.II_Rev (25) trophozoite-infected RBCs (25-30 h p.i.) were incubated with inhibitor for 3 h at 10%
(§6) 730 hematocrit and 5% parasitemia. The RBC pellet was washed 3 x in PBS + cOmplete. Cells were centrifuged
(§7) 731 at 380 x g for 5 min and the pelleted cells lysed by resuspension in PBS + 0.05% saponin for 5 min on ice.

PfYRS knockdown line = test: Growth inhibition of aptamer-regulatable PfYRS knockdown line (luciferase, 72 h); conditions: for IC50: Plasmodium falciparum, read-out: IC50 against the PfYRS knockdown line (control compounds)
Excerpt: 674 Generation and analysis of PfYRS knock-down transfectants
675 A conditional regulatable line for the cytosolic PfYRS (PF3D7_0807900) was generated by integrating the
676 gene regulatable system, TetR-DOZI-RNA aptamer module at the 3'-end of the target gene, in P. falciparum
677 parasites using CRISPR-Cas9 and homology-driven repair (55, 56). A line harbourbing an aptamer-
678 regulatable fluorescent protein (eYFP) integrated in the cg6 locus is used as the control (55). Transfection
679 into parasites was carried out by preloading RBCs with the donor vector as described previously (57).
680 Briefly, 50 μg of purified plasmid DNA was mixed with human RBCs and subjected to 8 square wave
681 electroporation pulses of 365 V for 1 ms each, separated by 0.1 s in a 0.2 cm cuvette. The plasmid DNA
682 preloaded cells were inoculated with NF54 expressing Cas9 and T7 RNA polymerase. […]
696 Stock solutions of ML901, DHA or borrelidin (Cayman Chemicals) were dispensed into 96-well U-bottom
697 BD Falcon™ plates and serially diluted in complete medium to yield final concentrations ranging from 20-
698 0.08 nM. Synchronous ring-stage YRScyt conditional knockdown line and the aptamer-regulatable control
699 line in varying aTc concentrations (high = 50 or 500 nM, low = 1 nM, and no aTc) were distributed into
700 the drug plate. Lowest drug treatment and a lethal dose of chloroquine (200 nM) served as reference
701 controls. Growth inhibition was analysed after 72 h using the Renilla-Glo(R) Luciferase Assay System (ref
702 no E2750 Promega) and the GloMax® Discover Multimode Microplate Reader (Promega), and IC50 values
703 were obtained from corrected dose-response curves using GraphPad Prism (version 8; GraphPad Software). […]
706 CRISPR/Cas9 was used to generate parasites encoding the S234C mutation in exon 2 of PfYRS, as shown
707 in Suppl Figure 6. Two guide RNAs (gRNA1: […] and gRNA2:
708 […]) were selected using Benchling (benchling.com), and cloned into the
709 pDC2-coCas9-gRNA plasmid essentially as described previously (58). A donor template of 645 bp,
710 encompassing the majority of the 708 bp exon 2, was synthesized (ThermoFisher) and cloned into the
711 AatII/EcoRI sites of both the pDC2-coCas9-gRNA1 and pDC2-coCas9-gRNA2 plasmids. In addition to
712 the TCC>TGC (S234C) mutation, additional silent shield mutations were introduced to prevent gRNA-
713 Cas9 complex binding, as shown in Suppl Figure 6. Ring-stage P. falciparum parasites (Dd2 strain) at 10%
714 parasitemia (150 µL of packed cells) were transfected with 50 µg of plasmid DNA using a BioRad Gene
715 Pulser II (310 V, 950 µF), and selected with 5 nM WR99210 (Jacobus Pharmaceuticals) for 8 days, after
716 which culture was continued without drug pressure until transfectants were obtained. Clones of the
717 PfYRSS234C mutant parasites were isolated by limiting dilution and verified by Sanger sequencing.
719 Protein translation assay
720 P. falciparum Cam 3.II_Rev (25) schizont- (43-48 h p.i.) infected RBCs were pre-incubated with inhibitor
Using a modification of a published procedure (14), the
722 cells were labelled with O-propargyl-puromycin (OPP; 4 µM) for 1 h, washed 3x (PBS +3% serum) and
as §1, §2, §3, §4, §5, §6, §7

Question: For `CC1(C)N=C(N)N=C(N)N1OCCCOc1cc(Cl)c(Cl)cc1Cl` [WR99210], which IC50 ([1]; schizont stage Cam3.II-rev, 3 h exposure, viability at trophozoite stage of next cycle) is on record?
Answer: Its IC50 is 1.9 nM.

Question: What about the IC50 ([2]; schizont stage Cam3.II-rev, 1 h pre-incubation then OPP incorporation over next 2 h) of the same compound?
Answer: The IC50 was > 1000 nM.

Question: `C[C@@H]1C[C@H](C)C[C@H](C)[C@@H](O)CC(=O)O[C@H]([C@@H]2CCC[C@H]2C(=O)O)C/C=C/C=C(/C#N)[C@H](O)[C@@H](C)C1` [borrelidin] was tested. Which IC50 (PfYRS knockdown line; high aTc (500 nM)) did it give?
Answer: The IC50 was 0.07 nM.

Question: What about the IC50 (PfYRS knockdown line; low aTc (1 nM)) of the same compound?
Answer: The IC50 was 0.07 ± 0.01 nM.

Question: And the IC50 (PfYRS knockdown line; no aTc)?
Answer: Its IC50 is 0.07 ± 0.01 nM.

Question: What about the “Fold change in IC50 (high aTc/ no aTc), PfYRS knockdown line (control compounds)” value (PfYRS knockdown line; high aTc 500 nM) of the same compound?
Answer: Its value is “no change”.

Question: Which results are given for `C[C@@H]1C[C@@H]([C@H](O)CC2CC(=O)NC(=O)C2)C(=O)[C@@H](C)C1` [cycloheximide]?
Answer: IC50 ([1]; Plasmodium falciparum, 3 h): 3200 nM; IC50 ([2]; Plasmodium falciparum): 2000 nM
